Reference: ChEMBL document CHEMBL4340506, “Inhibition of a viral prolyl hydroxylase” (Bioorg Med Chem, 2019)
The source made the active and inactive calls. The rule behind the calls is not given here. Where a SMILES comes first, the peptide text is derived from it. [ ]: non-standard residue; d: D form. Hyp = O=C(O)[C@@H]1C[C@@H](O)CN1

How the values were obtained:
[1] = target: T1, Prolyl 4-hydroxylase (Paramecium bursaria Chlorella virus 1) (UniProt Q84406); assay: Substrate activity at N-terminal His6-tagged recombinant Paramecium bursaria chlorella virus 1 CPH expressed in Escherichia coli Rosetta 2 (DE3) cells assessed as succinate production at 500 uM incubated for 60 s in presence of 2OG and in absence of L-ascorbate and using Fe2 as cofactor by 1H NMR spectroscopy
T1 sequence (whole entry): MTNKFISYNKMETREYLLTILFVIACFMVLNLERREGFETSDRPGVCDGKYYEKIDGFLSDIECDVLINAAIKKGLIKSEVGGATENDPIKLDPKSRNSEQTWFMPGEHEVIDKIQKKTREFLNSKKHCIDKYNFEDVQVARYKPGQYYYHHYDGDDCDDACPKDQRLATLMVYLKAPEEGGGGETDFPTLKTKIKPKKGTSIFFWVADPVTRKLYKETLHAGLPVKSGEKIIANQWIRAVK

[2] = target: T1, Prolyl 4-hydroxylase (Paramecium bursaria Chlorella virus 1); assay: Substrate activity at N-terminal His6-tagged recombinant Paramecium bursaria chlorella virus 1 CPH expressed in Escherichia coli Rosetta 2 (DE3) cells assessed as substrate hydroxylation at 100 uM incubated for 16 hrs in presence of 2OG by MALDI TOF MS analysis
[3] = target: T1, Prolyl 4-hydroxylase (Paramecium bursaria Chlorella virus 1); assay: Substrate activity at N-terminal His6-tagged recombinant Paramecium bursaria chlorella virus 1 CPH expressed in Escherichia coli Rosetta 2 (DE3) cells assessed as succinate production at 500 uM incubated for 60 s in presence of 2OG and L-ascorbate and using Fe2 as cofactor by 1H NMR spectroscopy
[4] = target: T1, Prolyl 4-hydroxylase (Paramecium bursaria Chlorella virus 1); assay: Substrate activity at N-terminal His6-tagged recombinant Paramecium bursaria chlorella virus 1 CPH expressed in Escherichia coli Rosetta 2 (DE3) cells assessed as substrate hydroxylation up to 1 mM incubated for 16 hrs in presence of 2OG by MALDI TOF MS analysis
[5] = target: T1, Prolyl 4-hydroxylase (Paramecium bursaria Chlorella virus 1); assay: Substrate activity at N-terminal His6-tagged recombinant Paramecium bursaria chlorella virus 1 CPH expressed in Escherichia coli Rosetta 2 (DE3) cells assessed as succinate production at 500 uM incubated for 60 s in presence of 2OG and using Fe2 as cofactor by 1H NMR spectroscopy
[6] = target: T1, Prolyl 4-hydroxylase (Paramecium bursaria Chlorella virus 1); assay: Substrate activity at N-terminal His6-tagged recombinant Paramecium bursaria chlorella virus 1 CPH expressed in Escherichia coli Rosetta 2 (DE3) cells assessed as substrate hydroxylation incubated for 16 hrs in presence of 2OG and in absence of L-ascorbate by MALDI TOF MS analysis
[7] = target: Egl nine homolog 1 (Homo sapiens, UniProt Q9GZT9); assay: Inhibition of recombinant human PHD2 by alphascreen assay
[8] = target: T2, Prolyl 4-hydroxylase (Paramecium bursaria Chlorella virus 1, UniProt Q84406); assay: Inhibition of N-terminal His6-tagged recombinant Paramecium bursaria chlorella virus 1 CPH expressed in Escherichia coli Rosetta 2 (DE3) cells pre-incubated for 5 mins before 2OG as substrate and Fe2 as co-factor addition in presence of L-ascorbate and measured after 5 mins MALDI TOF MS analysis
T2 sequence (Q84406 whole entry): T1 sequence (whole entry)

[9] = target: Hypoxia-inducible factor 1-alpha inhibitor (Homo sapiens, UniProt Q9NWT6); assay: Inhibition of recombinant human FIH using 2OG as substrate and Fe2 as co-factor assessed as hydroxylation incubated for 15 mins in presence of L-ascorbate by LC-MS analysis
[10] = target: T3, Prolyl 3-hydroxylase OGFOD1 (Homo sapiens, UniProt Q8N543); assay: Inhibition of recombinant human OGFOD1 using 2OG as substrate and Fe2 as co-factor assessed as hydroxylation incubated for 15 mins in presence of L-ascorbate by MALDI-TOF MS analysis
T3 sequence (Q8N543 whole entry): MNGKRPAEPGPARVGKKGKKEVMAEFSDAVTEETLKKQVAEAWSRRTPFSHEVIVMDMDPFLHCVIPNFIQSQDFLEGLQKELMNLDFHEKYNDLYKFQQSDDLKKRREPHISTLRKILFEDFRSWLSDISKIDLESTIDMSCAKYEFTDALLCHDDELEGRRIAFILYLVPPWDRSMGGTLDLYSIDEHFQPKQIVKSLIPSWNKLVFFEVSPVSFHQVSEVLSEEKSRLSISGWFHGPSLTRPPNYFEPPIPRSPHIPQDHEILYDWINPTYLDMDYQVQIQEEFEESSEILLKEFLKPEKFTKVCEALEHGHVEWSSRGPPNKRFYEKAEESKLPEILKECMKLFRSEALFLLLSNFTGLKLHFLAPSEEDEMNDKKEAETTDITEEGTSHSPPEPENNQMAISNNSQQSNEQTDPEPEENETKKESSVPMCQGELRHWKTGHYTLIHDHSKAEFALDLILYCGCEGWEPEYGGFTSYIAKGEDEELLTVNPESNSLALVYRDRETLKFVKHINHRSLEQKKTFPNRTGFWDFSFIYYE

[11] = compound: C[C@H](NC(=O)[C@@H]1CCCN1)C(=O)N1CCC[C@H]1C(=O)N[C@@H](CCCCN)C(=O)N1C[C@H](O)C[C@H]1C(=O)N[C@@H](C)C(=O)N1CCC[C@H]1C(=O)N[C@@H](CCCCN)C(=O)O; assay: Substrate activity at N-terminal His6-tagged recombinant Paramecium bursaria chlorella virus 1 CPH expressed in Escherichia coli Rosetta 2 (DE3) cells assessed as substrate Kcat incubated for 16 hrs in presence of 2OG by MALDI TOF MS analysis
[12] = compound: C[C@H](NC(=O)[C@@H]1CCCN1)C(=O)N1CCC[C@H]1C(=O)N[C@@H](CCCCN)C(=O)N1C[C@H](O)C[C@H]1C(=O)N[C@@H](C)C(=O)N1CCC[C@H]1C(=O)N[C@@H](CCCCN)C(=O)O; assay: Substrate activity at N-terminal His6-tagged recombinant Paramecium bursaria chlorella virus 1 CPH expressed in Escherichia coli Rosetta 2 (DE3) cells assessed as substrate Km incubated for 16 hrs in presence of 2OG by MALDI TOF MS analysis
[13] = compound: C[C@H](NC(=O)[C@@H]1CCCN1)C(=O)N1CCC[C@H]1C(=O)N[C@@H](CCCCN)C(=O)N1C[C@H](O)C[C@H]1C(=O)N[C@@H](C)C(=O)N1CCC[C@H]1C(=O)N[C@@H](CCCCN)C(=O)O; assay: (§1) Substrate activity at N-terminal His6-tagged recombinant Paramecium bursaria chlorella virus 1 CPH expressed in Escherichia coli Rosetta 2 (DE3) cells assessed as Km(app) for ascorbate incubated for 16 hrs in presence of ascorbate, 2OG and Fe2 by MALDI TOF MS analysis
[14] = compound: C[C@H](NC(=O)[C@@H]1CCCN1)C(=O)N1C[C@H](O)C[C@H]1C(=O)N[C@@H](CCCCN)C(=O)N1CCC[C@H]1C(=O)N[C@@H](C)C(=O)N1CCC[C@H]1C(=O)N[C@@H](CCCCN)C(=O)O; assay: as §1
[15] = compound: C[C@H](NC(=O)[C@@H]1CCCN1)C(=O)N1CCC[C@H]1C(=O)N[C@@H](CCCCN)C(=O)N1C[C@H](O)C[C@H]1C(=O)N[C@@H](C)C(=O)N1CCC[C@H]1C(=O)N[C@@H](CCCCN)C(=O)O; assay: (§2) Substrate activity at N-terminal His6-tagged recombinant Paramecium bursaria chlorella virus 1 CPH expressed in Escherichia coli Rosetta 2 (DE3) cells assessed as Km for 2OG incubated for 16 hrs in presence of 2OG and Fe2 by MALDI TOF MS analysis
[16] = compound: C[C@H](NC(=O)[C@@H]1CCCN1)C(=O)N1C[C@H](O)C[C@H]1C(=O)N[C@@H](CCCCN)C(=O)N1CCC[C@H]1C(=O)N[C@@H](C)C(=O)N1CCC[C@H]1C(=O)N[C@@H](CCCCN)C(=O)O; assay: as §2
[17] = compound: C[C@H](NC(=O)[C@@H]1CCCN1)C(=O)N1CCC[C@H]1C(=O)N[C@@H](CCCCN)C(=O)N1C[C@H](O)C[C@H]1C(=O)N[C@@H](C)C(=O)N1CCC[C@H]1C(=O)N[C@@H](CCCCN)C(=O)O; assay: (§3) Substrate activity at N-terminal His6-tagged recombinant Paramecium bursaria chlorella virus 1 CPH expressed in Escherichia coli Rosetta 2 (DE3) cells assessed as Km(app) for Fe2 incubated for 16 hrs in presence of 2OG and Fe2 by MALDI TOF MS analysis
[18] = compound: C[C@H](NC(=O)[C@@H]1CCCN1)C(=O)N1C[C@H](O)C[C@H]1C(=O)N[C@@H](CCCCN)C(=O)N1CCC[C@H]1C(=O)N[C@@H](C)C(=O)N1CCC[C@H]1C(=O)N[C@@H](CCCCN)C(=O)O; assay: as §3

Chain of Egl nine homolog 1 (Q9GZT9 whole entry): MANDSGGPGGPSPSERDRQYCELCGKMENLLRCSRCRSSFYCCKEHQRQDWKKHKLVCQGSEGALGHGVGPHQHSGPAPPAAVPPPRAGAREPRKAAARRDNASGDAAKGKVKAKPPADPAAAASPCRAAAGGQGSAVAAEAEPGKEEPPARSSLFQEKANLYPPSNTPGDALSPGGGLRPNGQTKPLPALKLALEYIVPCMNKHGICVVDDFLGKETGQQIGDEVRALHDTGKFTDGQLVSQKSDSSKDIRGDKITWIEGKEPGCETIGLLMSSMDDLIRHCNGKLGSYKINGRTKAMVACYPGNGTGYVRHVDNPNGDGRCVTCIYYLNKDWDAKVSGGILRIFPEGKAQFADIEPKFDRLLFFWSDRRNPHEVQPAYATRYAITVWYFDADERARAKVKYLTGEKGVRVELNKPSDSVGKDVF
Chain of Hypoxia-inducible factor 1-alpha inhibitor (Q9NWT6 whole entry): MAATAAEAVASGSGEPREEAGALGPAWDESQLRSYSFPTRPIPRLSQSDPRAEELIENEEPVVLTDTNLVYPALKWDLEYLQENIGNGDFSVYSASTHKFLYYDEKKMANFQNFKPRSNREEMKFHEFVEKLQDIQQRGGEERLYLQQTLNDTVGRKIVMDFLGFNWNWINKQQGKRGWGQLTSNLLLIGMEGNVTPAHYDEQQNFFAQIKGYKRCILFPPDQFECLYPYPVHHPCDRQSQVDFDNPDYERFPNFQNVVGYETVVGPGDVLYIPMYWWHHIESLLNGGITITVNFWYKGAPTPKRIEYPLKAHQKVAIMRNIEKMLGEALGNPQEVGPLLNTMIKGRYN

C[C@H](NC(=O)[C@@H]1CCCN1)C(=O)N1C[C@H](O)C[C@H]1C(=O)N[C@@H](CCCCN)C(=O)N1CCC[C@H]1C(=O)N[C@@H](C)C(=O)N1CCC[C@H]1C(=O)N[C@@H](CCCCN)C(=O)O (H-PA[Hyp]KPAPK-OH)
Activity [1]: inactive
Activity [2]: inactive
Activity [3]: Active
Activity [4]: inactive

H-PAPKPAPK-OH
Activity [5]: Active
Activity [6]: inactive

O=C(O)CNC(=O)c1c(O)c2ccccc2n(Cc2ccccc2)c1=O
IC50 [7]: 0.022 µM
IC50 [8]: 8.5 µM

O=c1c(-n2ccnn2)c[nH]n1-c1cc(N2CCOCC2)ncn1 [MOLIDUSTAT]
IC50 [9]: 31 µM
IC50 [10]: < 1 µM
IC50 [8]: 26.8 µM
Ki [8]: 16.1 µM

B1: Prolyl 4-hydroxylase (Paramecium bursaria Chlorella virus 1), Q84406 (protein)
chain: T1 sequence (whole entry)
kcat [11]: 52.1 s⁻¹
Km [12]: 230 µM
Km [13]: 13.8 µM
Km [14]: 1.7 µM
Km [15]: 27.4 µM
Km [16]: 29.5 µM
Km [17]: 1.1 µM
Km [18]: 0.9 µM
